Measured values reported in patent US20090275648A1, “MACROCYCLIC GHRELIN RECEPTOR ANTAGONISTS AND INVERSE AGONISTS AND METHODS OF USING THE SAME” (priority 2005, published 2009).

Target: T1, HEK293 cells expressing GHS-R1a receptor (Homo sapiens, UniProt Q92847)
T1 construct: host or cells: HEK293 cells (grown under geneticin selection)
Experiment: Fluorescence functional assay (ghrelin receptor), Example 2
Format: cell-based
Settings: assay of Example 2 (fluorescence, calcium)
Description: The compounds of the present invention were evaluated for their ability to interact at the human ghrelin receptor utilizing a competitive radioligand binding assay, fluorescence assay or Aequorin functional assay as described in the examples below. Such methods can be conducted, if so desired, in a high throughput manner to permit the simultaneous evaluation of many compounds.
• 1. Hanks' BSS without phenol red (Life Technologies) • 2. Hepes buffer • 3. Probenecid (Sigma) • 4. FLIPR Calcium-3 Assay Kit (Molecular Devices #R-8091) • 5. Falcon cell culture 96-well black/clear bottom plates • 6. 0.05% trypsin-EDTA • 7. […]
The plates were removed from the incubator and the media removed by inversion of the plates. […] For agonist testing, after reading for ten (10) sec, 25 μL of 2× test compound or control was injected into the assay plate. Fluorescence was monitored for an additional 50 sec. A reading was taken every two (2) seconds for a total of 30 readings per assay point.
For antagonist testing, after reading for ten (10) sec, 12.5 μL of 3× test compound or control was injected into the assay plate and allowed to react for three (3) min. At that time, 4 nM ghrelin (corresponds to EC80) was injected and fluorescence was monitored for an additional 60 sec. A reading was taken every two (2) seconds for a total of 125 readings per data point. […]

T1 sequence (Q92847 whole entry): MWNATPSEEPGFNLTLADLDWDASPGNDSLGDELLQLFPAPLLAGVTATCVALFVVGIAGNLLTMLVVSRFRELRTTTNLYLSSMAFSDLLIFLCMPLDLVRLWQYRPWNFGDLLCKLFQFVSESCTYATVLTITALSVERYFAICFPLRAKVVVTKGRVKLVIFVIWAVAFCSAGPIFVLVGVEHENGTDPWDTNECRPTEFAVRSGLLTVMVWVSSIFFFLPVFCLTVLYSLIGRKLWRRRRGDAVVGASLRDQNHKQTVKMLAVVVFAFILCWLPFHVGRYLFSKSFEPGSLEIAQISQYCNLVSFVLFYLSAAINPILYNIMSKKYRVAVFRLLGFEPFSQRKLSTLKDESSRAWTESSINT

With `CCC(C)[C@@H]1NCCOc2ccccc2/C=C/CNC(=O)[C@@H](Cc2ccccc2)NC(=O)[C@H](C(C)O)N(C)C1=O` (stereo partly shown) [Compound 502] as the compound, how does the Ki read?
Its Ki is 100 to 1000 nM.
